The values below come from US5245050A, “Derivatives of physiologically active substance ML-236B and process for production thereof” (Tobishi Yakuhin Kogyo Kabushiki Kaisha, priority 1988, dated 1993).

The assay deals with T1, HMG-CoA reductase (Rattus norvegicus, UniProt P51639).
T1 construct: 0.6 mg/ml of rat liver microsome fraction; from tissue; host or cells: rat liver (microsome fraction)
T1 sequence (P51639 1-887): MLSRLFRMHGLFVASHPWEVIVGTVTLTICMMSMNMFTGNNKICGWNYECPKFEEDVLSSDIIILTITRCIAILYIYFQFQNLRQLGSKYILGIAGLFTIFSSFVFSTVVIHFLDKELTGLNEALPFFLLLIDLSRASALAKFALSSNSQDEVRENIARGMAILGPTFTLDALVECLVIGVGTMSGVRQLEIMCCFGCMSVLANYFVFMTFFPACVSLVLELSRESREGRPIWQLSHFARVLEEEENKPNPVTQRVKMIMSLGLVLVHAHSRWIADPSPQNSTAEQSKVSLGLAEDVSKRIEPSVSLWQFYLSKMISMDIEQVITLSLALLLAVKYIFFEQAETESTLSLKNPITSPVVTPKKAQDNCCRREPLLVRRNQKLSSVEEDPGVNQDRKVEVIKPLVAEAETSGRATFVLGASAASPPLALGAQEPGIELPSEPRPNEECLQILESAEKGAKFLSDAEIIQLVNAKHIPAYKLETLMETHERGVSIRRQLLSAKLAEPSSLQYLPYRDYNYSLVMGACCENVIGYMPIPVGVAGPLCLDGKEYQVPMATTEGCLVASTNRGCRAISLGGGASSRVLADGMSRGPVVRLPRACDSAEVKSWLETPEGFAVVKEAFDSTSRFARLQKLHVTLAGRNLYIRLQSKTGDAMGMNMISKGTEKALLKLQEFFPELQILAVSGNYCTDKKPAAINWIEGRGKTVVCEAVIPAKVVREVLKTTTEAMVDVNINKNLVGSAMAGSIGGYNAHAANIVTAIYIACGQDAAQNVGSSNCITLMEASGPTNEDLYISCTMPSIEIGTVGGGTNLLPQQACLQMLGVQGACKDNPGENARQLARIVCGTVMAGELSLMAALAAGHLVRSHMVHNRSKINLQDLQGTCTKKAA
In words: HMG-CoA reductase inhibitory activity ([14C]HMG-CoA to [14C]mevalonic acid, rat liver microsome fraction). Type of assay: biochemical. To be noted: for remaining activity at 0.1 µg/mL: 0.1 μg/ml; for IC50: rat liver microsome fraction, 37° C., 30 minutes, read-out: I50 (amount of sample necessary to inhibit the HMG-CoA reductase activity to 50%) (converted); for remaining activity at 10 µg/mL: 10 μg/ml. The protocol: The HMG-CoA reductase activity can be determined by using [^14 C] HMG-CoA as a substrate and measuring the resulting [^14 C] mevalonic acid (Kuroda and Endo, Biochem Biophys Acta, 486, 70-81), as described in detail in the following.
A reaction mixture contains 100 mM of potassium phosphate buffer (pH 7.4), 10 mM of EDTA, 10 mM of dithiothreitol, 10 mM of NADPH, 0.11 mM of DL-[3-^14 C] HMG-CoA (4.5 mCi/mmol), and 0.6 mg/ml of rat liver microsome fraction. The final volume of reaction mixture is 50 μl including 1 μl of a methanol solution of a test sample. A reaction is started by adding the substrate HMG-CoA, continued at 37° C. for 30 minutes, and terminated by adding 10 μl of 2N hydrochloric acid solution To this reaction mixture is added 20 μl of 100 mM [5-^3 H] mevaronic acid (22.7 μCi/mmol), and the reaction is carried out at 37° C. for a further 15 minutes. Using 40 μl of this reaction mixture as a carrier, 5 μl of 200 mM mevaronic acid (lactone type) is spotted on a silica gel plate, and after development by benzene/acetone (1:1) mixture, a spot of mevaronic acid is peeled off and suspended in a liquid scintillator to measure the radio activity thereof. The inhibitory activity is expressed by an amount of a sample necessary to inhibit the HMG-CoA reductase activity to 50% (I50 value).
(In general: Microsomes from liver hold many membrane-bound enzymes, among them those of drug oxidation.)

The mark [1] stands for this setting: read-out: Enzyme activity (% relating to control).

The structures appear in SMILES notation.

Take `CCC(C)C(=O)OC1CCC2C(F)(F)C23C=CC(C)C(CCC2CC(O)CC(=O)O2)C13` (stereo not drawn) [(1)]: the IC50 was 681 nM. For the same compound, the remaining activity at 0.1 µg/mL under setting [1] turned out to be 74%. Moreover, the remaining activity at 1 µg/mL (1 μg/ml, read-out: Enzyme activity (% relating to control)) was found to be 27%.
Take `CCC(C)C(=O)OC1CCC2CC23C=CC(C)C(CCC2CC(O)CC(=O)O2)C13` (stereo not drawn) [(4)]: the IC50 was 544 nM. Moreover, under setting [1], the remaining activity at 0.1 µg/mL is 63% and the remaining activity at 10 µg/mL was 7.6%.
The corresponding values for `CCC(C)C(=O)OC1CCC2C(Cl)(Cl)C23C=CC(C)C(CCC(O)CC(O)CC(N)=O)C13` (stereo not drawn) [(7)] are over 2040 nM, 98% and 30%.
Regarding `CCC(C)C(=O)OC1CCC2C(Cl)C23C=CC(C)C(CCC2CC(O)CC(=O)O2)C13` (stereo not drawn) [Compound (6)], the IC50 was 683 nM. Also, under setting [1], the remaining activity at 0.1 µg/mL is 71% and the remaining activity at 10 µg/mL amounted to 4.7%.
